Measured values as given in ChEMBL document CHEMBL1201862, “PubChem BioAssay data set” (2004).
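Compound exposure: 48 hours, 5 concentrations, 96-well plates. Here, GI50 denotes the concentration required for 50% inhibition of growth.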 Activity calls are given as the source filed them. Cut-off read from the data, not from the text of the source: active = GI50 up to about 1.1 µM and inactive = higher.

Key:
Assay in all cases: NCI tumour cell line growth inhibition, 48 h
A498 = system: A498
COLO 205 = system: COLO 205
HL-60 = system: HL-60
HT-29 = system: HT-29
IGROV-1 = system: IGROV-1
K562 = system: K562
LOX IMVI = system: LOX IMVI
M14 = system: M14
MOLT-4 = system: MOLT-4
Malme-3M = system: Malme-3M
OVCAR-3 = system: OVCAR-3
OVCAR-8 = system: OVCAR-8
SF-268 = system: SF-268
SF-539 = system: SF-539
SN12C = system: SN12C
SNB-19 = system: SNB-19
SR = system: SR
SW-620 = system: SW-620
TK-10 = system: TK-10
DU-145 = system: DU-145

| Compound | GI50 (A498) | GI50 (COLO 205) | GI50 (HL-60) | GI50 (HT-29) | GI50 (IGROV-1) | GI50 (K562) | GI50 (LOX IMVI) | GI50 (M14) | GI50 (MOLT-4) | GI50 (Malme-3M) | GI50 (OVCAR-3) | GI50 (OVCAR-8) | GI50 (SF-268) | GI50 (SF-539) | GI50 (SN12C) | GI50 (SNB-19) | GI50 (SR) | GI50 (SW-620) | GI50 (TK-10) | GI50 (DU-145) |
| --- | --- | --- | --- | --- | --- | --- | --- | --- | --- | --- | --- | --- | --- | --- | --- | --- | --- | --- | --- | --- |
| N=C(N)NS(=O)(=O)c1ccc(Nc2c3ccccc3nc3c(C(=O)N4CCN(CCO)CC4)cccc23)cc1 | > 100 µM (inactive) | > 100 µM (inactive) | > 100 µM (inactive) | > 100 µM (inactive) | > 100 µM (inactive) | > 100 µM (inactive) | > 100 µM (inactive) | > 100 µM (inactive) | > 100 µM (inactive) | > 100 µM (inactive) | > 100 µM (inactive) | > 100 µM (inactive) | > 100 µM (inactive) | > 100 µM (inactive) | > 100 µM (inactive) | > 100 µM (inactive) | > 100 µM (inactive) | > 100 µM (inactive) | > 100 µM (inactive) |  |
| CC1(C)CCC[C@]2(C)[C@@H]1CC[C@@]13O[C@@H]1C1=C(CO)C(=O)OC1=C[C@@H]23 | 27.2 µM (inactive) | 16.5 µM (inactive) |  | 14 µM (inactive) | 5.68 µM (inactive) | 21.4 µM (inactive) |  | 15.8 µM (inactive) | 17.3 µM (inactive) | 1.1 µM (active) |  |  | 15.2 µM (inactive) |  | 12.9 µM (inactive) | 13.6 µM (inactive) |  | 18.9 µM (inactive) | 25.2 µM (inactive) | 18.4 µM (inactive) |
| OC1C2C=CCC1CCC2 (stereo not given) | > 100 µM (inactive) | > 100 µM (inactive) | > 100 µM (inactive) | > 100 µM (inactive) | > 100 µM (inactive) | > 100 µM (inactive) | > 100 µM (inactive) | > 100 µM (inactive) | > 100 µM (inactive) | > 100 µM (inactive) | > 100 µM (inactive) | > 100 µM (inactive) | > 100 µM (inactive) | > 100 µM (inactive) | > 100 µM (inactive) | > 100 µM (inactive) | > 100 µM (inactive) | > 100 µM (inactive) | > 100 µM (inactive) |  |
| CCOC(=O)NN1C(=O)C(=P(c2ccccc2)(c2ccccc2)c2ccccc2)C(C(=O)OCC)=C1C | > 100 µM (inactive) | > 100 µM (inactive) | > 100 µM (inactive) | > 100 µM (inactive) | > 100 µM (inactive) | > 100 µM (inactive) | > 100 µM (inactive) | > 100 µM (inactive) | > 100 µM (inactive) | > 100 µM (inactive) | > 100 µM (inactive) | > 100 µM (inactive) | > 100 µM (inactive) | > 100 µM (inactive) | > 100 µM (inactive) | > 100 µM (inactive) | > 100 µM (inactive) | > 100 µM (inactive) | > 100 µM (inactive) |  |
| CC(=O)O[C@H]1CC2C(C3CCC(C(C)CCC(N)=O)[C@]31C)[C@H](OC(C)=O)C[C@@H]1CC3(CC[C@]21C)OOC1(CC[C@]2(C)C4C[C@H](OC(C)=O)[C@]5(C)C(C(C)CCC(N)=O)CCC5C4[C@H](OC(C)=O)C[C@@H]2C1)OO3 (stereo not given in full) |  | 1.11 µM (active) | 1.45 µM (inactive) | 1.63 µM (inactive) | 1.69 µM (inactive) | 1.76 µM (inactive) | 1.4 µM (inactive) | 1.95 µM (inactive) | 1.11 µM (active) | 2.61 µM (inactive) | 1.42 µM (inactive) | 1.55 µM (inactive) | 1.75 µM (inactive) |  | 1.79 µM (inactive) | 2.61 µM (inactive) |  | 2.63 µM (inactive) | 1.8 µM (inactive) | 1.73 µM (inactive) |
| O=C(Cc1ccccc1)Oc1ccc2c(-c3ccccc3)c(C(=O)Nc3ccc(Cl)cc3)c(=O)oc2c1 | > 100 µM (inactive) | > 100 µM (inactive) | > 100 µM (inactive) | > 100 µM (inactive) | > 100 µM (inactive) | > 100 µM (inactive) | > 100 µM (inactive) | > 100 µM (inactive) | > 100 µM (inactive) | > 100 µM (inactive) | > 100 µM (inactive) | > 100 µM (inactive) | > 100 µM (inactive) | > 100 µM (inactive) | > 100 µM (inactive) | > 100 µM (inactive) | > 100 µM (inactive) | > 100 µM (inactive) | > 100 µM (inactive) |  |
| Cc1cccc2c(=O)c([Se]c3coc4c(C)cccc4c3=O)coc12 | 24.6 µM (inactive) | > 10 µM (inactive) | 30.6 µM (inactive) | 25.6 µM (inactive) | 13.6 µM (inactive) | 69.5 µM (inactive) | 20 µM (inactive) | 16.4 µM (inactive) | 38.6 µM (inactive) | 19.1 µM (inactive) | 25.2 µM (inactive) | 15.9 µM (inactive) | 19.6 µM (inactive) | 16.3 µM (inactive) | 18.5 µM (inactive) | 19.4 µM (inactive) | 14.8 µM (inactive) | 20.4 µM (inactive) | 29.9 µM (inactive) |  |
| Cc1cccc(C(C)C)c1NC(=O)CC1C(=O)Nc2ccccc2S1(=O)=O (stereo not given) | 11.7 µM (inactive) | 25.2 µM (inactive) | 5.28 µM (inactive) | 12.6 µM (inactive) | 22.5 µM (inactive) | 2.22 µM (inactive) | 22.2 µM (inactive) | 15.5 µM (inactive) | 0.408 µM (active) | 16.3 µM (inactive) | 12.2 µM (inactive) | 14.4 µM (inactive) | 12.8 µM (inactive) | 5.77 µM (inactive) | 23.2 µM (inactive) | 29.2 µM (inactive) | 1.48 µM (inactive) | 7.03 µM (inactive) | 29 µM (inactive) |  |
| CSc1nc2c(nc(N)n2C2OCC(O)C(O)C2O)c(=O)n1C (stereo not given) | > 100 µM (inactive) | > 100 µM (inactive) | > 100 µM (inactive) | > 100 µM (inactive) | > 100 µM (inactive) | > 100 µM (inactive) | > 100 µM (inactive) | > 100 µM (inactive) | > 100 µM (inactive) | > 100 µM (inactive) | > 100 µM (inactive) | > 100 µM (inactive) | > 100 µM (inactive) | > 100 µM (inactive) | > 100 µM (inactive) | > 100 µM (inactive) | > 100 µM (inactive) | > 100 µM (inactive) | > 100 µM (inactive) |  |
| O=C(CSc1c2ccccc2nc2ccccc12)Nc1ccccc1-c1ccccc1NC(=O)CSc1c2ccccc2nc2ccccc12 | 23 µM (inactive) | 30.1 µM (inactive) | 6.17 µM (inactive) | 34.8 µM (inactive) | 18.4 µM (inactive) | 2.37 µM (inactive) | 17.2 µM (inactive) | 24.4 µM (inactive) | 5.27 µM (inactive) | 30.8 µM (inactive) | 16.4 µM (inactive) | 28.5 µM (inactive) | 26.8 µM (inactive) | 14.4 µM (inactive) | 28 µM (inactive) | 22.4 µM (inactive) | 11.1 µM (inactive) | 28.6 µM (inactive) | 60.4 µM (inactive) |  |
| O=C1c2ccccc2C2(O)Oc3cccc(O)c3C12O (stereo not given) | > 100 µM (inactive) | > 100 µM (inactive) | > 100 µM (inactive) | > 100 µM (inactive) | > 100 µM (inactive) | > 100 µM (inactive) | > 100 µM (inactive) | > 100 µM (inactive) | > 100 µM (inactive) | > 100 µM (inactive) | > 100 µM (inactive) | > 100 µM (inactive) | > 100 µM (inactive) | > 100 µM (inactive) | > 100 µM (inactive) | > 100 µM (inactive) | > 100 µM (inactive) | > 100 µM (inactive) | > 100 µM (inactive) |  |
| O=C1Nc2ccc(Br)cc2/C1=N/Nc1ccc([N+](=O)[O-])cc1 | 20.7 µM (inactive) | 27.2 µM (inactive) | 12.6 µM (inactive) | 57.9 µM (inactive) | 38.8 µM (inactive) | 19.6 µM (inactive) | 21 µM (inactive) | 23.6 µM (inactive) | 34.3 µM (inactive) | 24.1 µM (inactive) | 19.9 µM (inactive) | 14.4 µM (inactive) | 17.5 µM (inactive) | 14.2 µM (inactive) | 19.3 µM (inactive) | 19.3 µM (inactive) | 22.8 µM (inactive) | 26.4 µM (inactive) | 18.3 µM (inactive) |  |
| COC(=O)CC(C(C(=O)OCc1ccccc1)C(C)O)N1C(=O)OC(c2ccccc2)C1c1ccccc1 (stereo not given) | > 100 µM (inactive) | > 100 µM (inactive) | > 100 µM (inactive) | > 100 µM (inactive) | > 100 µM (inactive) | 81.1 µM (inactive) | > 100 µM (inactive) | > 100 µM (inactive) | 44.2 µM (inactive) | > 100 µM (inactive) | > 100 µM (inactive) | > 100 µM (inactive) | > 100 µM (inactive) | > 100 µM (inactive) | > 100 µM (inactive) | > 100 µM (inactive) | 81.5 µM (inactive) | > 100 µM (inactive) | > 100 µM (inactive) |  |
| CC(C)OCC(O)COc1ccc2ccc(=O)oc2c1 (stereo not given) |  | > 100 µM (inactive) | > 100 µM (inactive) | > 100 µM (inactive) | > 100 µM (inactive) | > 100 µM (inactive) | > 100 µM (inactive) | > 100 µM (inactive) | > 100 µM (inactive) | > 100 µM (inactive) | > 100 µM (inactive) | > 100 µM (inactive) | > 100 µM (inactive) |  | > 100 µM (inactive) | > 100 µM (inactive) |  | > 100 µM (inactive) | > 100 µM (inactive) | > 100 µM (inactive) |
| Nc1cc(OCC2CCCCC2)nc(N)n1 |  | 87.3 µM (inactive) | > 100 µM (inactive) | > 100 µM (inactive) | 67.9 µM (inactive) | > 100 µM (inactive) | > 100 µM (inactive) | > 100 µM (inactive) | 82.2 µM (inactive) | > 100 µM (inactive) | > 100 µM (inactive) | > 100 µM (inactive) | > 100 µM (inactive) | > 100 µM (inactive) | > 100 µM (inactive) | > 100 µM (inactive) |  | > 100 µM (inactive) | > 100 µM (inactive) | > 100 µM (inactive) |
